Experimental findings from patent publication US9873702B2, “Heterocyclic compounds as biogenic amine transport modulators” (Southern Research Institute, priority 2014, dated 2018) are described below.

“Also recorded” adds a separate entry of the source. Read-outs that look alike come from different tables or passages of the source.

The test concerns the target dopamine transporter (DAT) (Rattus norvegicus, UniProt P23977). In words: Dopamine reuptake ([^3H]dopamine uptake) inhibition in rat brain synaptosomes. Conditions: for efficacy of [^3H]DA (DAT) uptake inhibition, in words: partial versus full inhibition.
The mark [1] stands for this setting: DA Uptake EC50 (nM ± SD), rat caudate synaptosomes, 5 nM [^3H]dopamine, 15 min, 25° C., three experiments pooled.
Setting [2] is: read-out: DA Uptake Emax (% I ± SD).
The mark [3] stands for this setting: One-Site IC50 (nM), [^3H]DA uptake dose-response curve fit to one-component equation.
Where [4] appears, read: Two-Site IC50-1 (nM), [^3H]DA uptake dose-response curve fit to two-component equation, component 1.
The mark [5] stands for this setting: Two-Site IC50-2 (nM), [^3H]DA uptake dose-response curve fit to two-component equation, component 2.
Where [6] appears, read: read-out: Two-Site Emax-1 (% I).
Setting [7] is: read-out: Two-Site Emax-2 (% I).

dopamine transporter (DAT), sequence (P23977 whole entry): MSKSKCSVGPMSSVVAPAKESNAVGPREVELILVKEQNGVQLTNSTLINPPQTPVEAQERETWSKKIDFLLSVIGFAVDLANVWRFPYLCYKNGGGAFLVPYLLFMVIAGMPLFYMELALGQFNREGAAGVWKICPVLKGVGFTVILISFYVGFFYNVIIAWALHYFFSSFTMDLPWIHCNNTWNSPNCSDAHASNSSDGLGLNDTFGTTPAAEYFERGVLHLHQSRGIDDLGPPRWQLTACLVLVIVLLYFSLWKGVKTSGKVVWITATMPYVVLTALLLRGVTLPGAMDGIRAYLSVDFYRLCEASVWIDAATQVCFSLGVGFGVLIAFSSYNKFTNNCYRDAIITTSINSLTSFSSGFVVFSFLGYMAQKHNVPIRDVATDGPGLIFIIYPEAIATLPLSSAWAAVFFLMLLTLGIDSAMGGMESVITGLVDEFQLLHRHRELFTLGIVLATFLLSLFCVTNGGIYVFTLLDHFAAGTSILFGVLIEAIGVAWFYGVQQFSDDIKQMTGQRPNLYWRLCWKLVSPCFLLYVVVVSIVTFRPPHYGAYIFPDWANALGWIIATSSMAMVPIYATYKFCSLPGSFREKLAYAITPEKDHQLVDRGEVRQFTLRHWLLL

Regarding `COCc1c[nH]c2ccc(-c3nc(NCC(c4ccccc4)c4ccccc4)c4ccccc4n3)cc12` [compound 116, N-(2,2-Diphenylethyl)-2-(3-(Methoxymethyl)-1H-Indol-5-yl)Quinazolin-4-Amine], under setting [1], the IC50 was 165 ± 15 nM. The Emax under setting [2] is 69 ± 1%.
`Cc1cc2nccn2cc1-c1nc(NCC(c2ccccc2)N(C)C)c2ccccc2n1` (centres unmarked) [compound 196, N1,N1-Dimethyl-N2-(2-(7-Methylimidazo[1,2-A]Pyridin-6-yl)Quinazolin-4-yl)-1-Phenylethane-1,2-Diamine] had a half-inhibitory concentration (IC50) under setting [1] of 14 ± 5 nM. Also, under setting [2], the Emax was found to be 77 ± 4%.
On to `CN1CCN(C(CNc2nc(-c3cnc4nccn4c3)nc3ccccc23)c2ccccc2)CC1` (centres unmarked) [compound 129, 2-(Imidazo[1,2-A]Pyrimidin-6-yl)-N-(2-(4Methylpiperazin-1-yl)-2-Phenylethyl)Quinazolin-4-Amine], for which the IC50 under setting [1] is 49 ± 9 nM. For the same compound, under setting [2], the maximal response (Emax) was 71 ± 2%.
In turn, `Nc1ncc(-c2nc(NCC(c3ccccc3)c3ccccn3)c3ccccc3n2)cn1` (centres unmarked) [compound 95, 2-(2-Aminopyrimidin-5-yl)-N-(2-Phenyl-2-(Pyridin-2-yl)Ethyl)Quinazolin-4-Amine] yielded a half-maximal inhibitory concentration (IC50) under setting [1] of 385 ± 89 nM. The Emax under setting [2] came to 72 ± 4%.
As for `CN(C)c1ccc(-c2nc(NCCc3ccccc3)c3ccccc3n2)cc1` [SRI-31335], the “efficacy of [^3H]DA (DAT) uptake inhibition, in words” value is “fully inhibits; also recorded: full-efficacy [^3H]DA uptake inhibitors”. Further, the IC50 under setting [3] was 156 ± 12 nM. This compound returned an IC50 under setting [4] of 99 ± 63 nM. This compound also returned an IC50 under setting [5] of 564 ± 1180 nM. The Emax (read-out: One-Site Emax (% I)) came out at 100 ± 1.5%. The maximal effect (Emax) under setting [6] was determined as 76 ± 54%. For the same compound, the Emax under setting [7] stood at 27 ± 53%.
Turning to `Cc1c(-c2nc(NCC(c3ccccc3)c3ccccc3)c3ccccc3n2)ccc2nccn12` [compound 195, N N-(2,2-Diphenylethyl)-2-(5-Methylimidazo[1,2-A]Pyridin-6-yl)Quinazolin-4-Amine], under setting [1], the IC50 was found to be 34 ± 6 nM. Besides, the maximum response (Emax) under setting [2] was 74 ± 2%.
The compound `c1ccc(C(CNc2nc(-c3cccn4ccnc34)nc3ccccc23)c2ccccc2)cc1` [compound 147, N-(2,2-Diphenylethyl)-2-(Imidazo[1,2-A]pyridin-8-yl)Quinazolin-4-Amine] returned a half-inhibitory concentration (IC50) under setting [1] of 92 ± 21 nM. Besides, the Emax under setting [2] stood at 92 ± 4%.
Taken in the same sequence, the figures for `c1ccc(C(CNc2nc(-c3ccc4nccn4c3)nc3ccccc23)c2ncccn2)cc1` (centres unmarked) [compound 103, 2-(Imidazo[1,2-A]Pyridin-6-yl)-N-(2-Phenyl-2-(Pyrimidin-2-yl)Ethyl)Quinazolin-4-Amine] were 553 ± 82 nM and 73 ± 2%.
Consider `c1ccc(C(CNc2nc(-c3cnc4nccn4c3)nc3ccccc23)c2cccnc2)cc1` (centres unmarked) [compound 134, 2-(Imidazo[1,2-A]Pyrimidin-6-yl)-N-(2-Phenyl-2-(Pyridin-3-yl)Ethyl)Quinazolin-4-Amine], for which 31 ± 7 nM corresponded to half-maximal inhibition under setting [1] (IC50). For the same compound, under setting [2], the maximal effect (Emax) is 72 ± 3%.
Taken in the same sequence, the figures for `c1ccc(C(CCNc2nc(-c3ccsc3)nc3ccccc23)c2ccccc2)cc1` [compound 5, N-(3,3-Diphenylpropyl)-2-(thiophen-3-yl)quinazolin-4-amine] were 416 ± 22 nM and 83 ± 1%.
Take `c1ccc(C(CNc2nc(-c3cnc4nccn4c3)nc3ccccc23)N2CCCCC2)cc1` (centres unmarked) [compound 120, 2-(Imidazo[1,2-A]Pyrimidin-6-yl)-N-(2-Phenyl-2-(Piperidin-1-yl)Ethyl)Quinazolin-4-Amine]: the IC50 under setting [1] turned out to be 89 ± 27 nM. Also, under setting [2], the Emax worked out at 81 ± 4%.
For `c1ccc(C(CNc2nc(-c3ccc4c(c3)CCN4)nc3ccccc23)c2ccccc2)cc1` [compound 84, N-(2,2-Diphenylethyl)-2-(Indolin-5-yl)Quinazolin-4-Amine], the “efficacy of [^3H]DA (DAT) uptake inhibition, in words” value is “partially inhibit; also recorded: partial inhibitors”. Further, the midpoint of inhibition under setting [3], the IC50, lay at 18 ± 4 nM. This compound displayed an IC50 under setting [4] of 1.8e+06 nM. The compound further gave an IC50 under setting [5] of 1.8e+06 nM. The maximum response (Emax) under setting [2] came to 75 ± 3%. For the same compound, where the note is “read-out: One-Site Emax (% I)”, the maximal response (Emax) was found to be 75 ± 3%. The Emax under setting [6] came to 37%. Moreover, the Emax under setting [7] is 37%.
For the compound `Cc1cc2nccn2cc1-c1nc(NCC(c2ccccc2)C2CCCC2)c2ccccc2n1` (centres unmarked) [compound 194, N-(2-Cyclopentyl-2-Phenylethyl)-2-(7-Methylimidazo[1,2-A]pyridin-6-yl)Quinazolin-4-Amine], half-maximal inhibition under setting [1] (IC50) required 1.6 ± 0.3 nM. In addition, the Emax under setting [2] was found to be 74 ± 2%.
Compound `c1ccc(C(CNc2nc(-c3ccc4c(c3)NCCC4)nc3ccccc23)c2ccccc2)cc1` [compound 83, N-(2,2-Diphenylethyl)-2-(1,2,3,4-Tetrahydroquinolin-7-yl)Quinazolin-4-Amine] showed an IC50 under setting [1] of 132 ± 43 nM. Moreover, the Emax under setting [2] was found to be 69 ± 4%.
`c1ccc(C(Nc2nc(N3CCCCC3)nc3ccccc23)c2ccccc2)cc1` [compound 3, N-Benzhydryl-2-(piperidin-1-yl)quinazolin-4-amine] had a 50% inhibitory concentration (IC50) under setting [1] of 150 nM. For the same compound, the Emax under setting [2] is 100%.
Regarding `c1ccc(C(CNc2nc(-c3cccnc3)nc3ccccc23)c2ccccc2)cc1` [compound 2, N-(2,2-Diphenylethyl)-2-(pyridin-3-yl)quinazolin-4-amine], the IC50 under setting [1] came to 480 nM. In addition, the maximal response (Emax) under setting [2] is 100%.
Under setting [1], `c1ccc2c(NCC(c3ccncc3)c3ccncc3)nc(-c3cnc4nccn4c3)nc2c1` [compound 176, N-(2,2-Di(Pyridin-4-yl)Ethyl)-2-(Imidazo[1,2-A]Pyrimidin-6-yl)Quinazolin-4-Amine] gave a half-inhibitory concentration (IC50) of 299 ± 45 nM. Besides, the Emax under setting [2] is 70 ± 2%.
Taken in the same sequence, the figures for `c1ccc(C(CNc2nc(-c3ccc4nnnn4c3)nc3ccccc23)c2ccccc2)cc1` [compound 108, N-(2,2-Diphenylethyl)-2-(Tetrazolo[1,5-A]Pyridin-6-yl)Quinazolin-4-Amine] were 229 ± 54 nM and 47 ± 2%.
In the same order, the values of `c1ccc(C(CNc2nc(-c3ccc4nccn4c3)nc3ccccc23)n2ccnc2)cc1` (centres unmarked) [compound 115, N-(2-(1H-Imidazol-1-yl)-2-Phenylethyl)-2-(Imidazo[1,2-A]Pyridin-6-yl)Quinazolin-4-Amine] are 83 ± 27 nM and 58 ± 3%.
Regarding `CN(C)c1ccc(-c2nc(NCC(c3ccccc3)N3CCOCC3)c3ccccc3n2)cc1` (centres unmarked) [SRI-30835], the “efficacy of [^3H]DA (DAT) uptake inhibition, in words” value was “partially inhibit”. This compound also returned an IC50 under setting [3] of 15 ± 7 nM. The compound further displayed a half-inhibitory concentration (IC50) under setting [4] of 6 ± 0.9 nM. In addition, under setting [5], the 50% inhibitory concentration (IC50) is 4000 ± 1330 nM. Under “read-out: One-Site Emax (% I)”, the Emax stood at 75 ± 5%. Further, the maximal effect (Emax) under setting [6] was found to be 57 ± 2%. Besides, the Emax under setting [7] worked out at 42 ± 4%.
Consider `c1ccc(C(CNc2nc(N3CCCCC3)nc3ccccc23)c2ccccc2)cc1` [compound 4, N-(2,2-Diphenylethyl)-2-(piperidin-1-yl)quinazolin-4-amine], for which half-maximal inhibition under setting [1] (IC50) required 60 nM. In addition, under setting [2], the Emax is 100%.
In the same order, the values of `c1ccc(C(CCNc2nc(-c3cccnc3)nc3ccccc23)c2ccccc2)cc1` [compound 1, N-(3,3-Diphenylpropyl)-2-(pyridin-3-yl)quinazolin-4-amine] are 443 ± 88 nM and 82 ± 3%.
Compound `Cc1ccc(-c2nc(NCC(c3ccccc3)c3ccccc3)c3ccccc3n2)c2nccn12` [compound 197, N-(2,2-Diphenylethyl)-2-(5-Methylimidazo[1,2-A]pyridin-8-yl)Quinazolin-4-Amine] displayed an IC50 under setting [1] of 208 ± 34 nM. The Emax under setting [2] turned out to be 92 ± 3%.

The term IC50 denotes the concentration that inhibits the measured activity by half. Read a high IC50 as weaker potency. What is called Emax is the maximal effect, on the per cent scale that the assay sets.
